The results in this text go back to patent US12421216B2, “Voruciclib polymorphs and methods of making and using thereof” (MEI PHARMA, INC., priority 2019, dated 2025).

“Also recorded” adds a separate entry of the source. Counter-ions that a name gives are not always drawn. Like-named read-outs stand apart in the source and are kept apart here.

A word on the solubility: it is the concentration that dissolves in the medium under given conditions.

Series [1] can be described thus: Quantitative solubility determination of voruciclib malonate after the thermocycling experiments (UPLC). Format: physicochemical. Here is the method:
Moreover, after the thermocycling experiments, an aliquot of the mother liquor was taken and analyzed by UPLC to determine the API solubility. After that, the solutions were evaporated under vacuum (5 mbar) and the dry solids were analyzed by HT-XRPD. The solids were then exposed to accelerated aging conditions (2 days at 40° C./75% RH) followed by HT-XRPD re-analysis. Suspensions of amorphous voruciclib malonate salt were prepared in 24 solvents. After the temperature profile, an aliquot of mother liquor was taken, filtered and analyzed by UPLC to determine the API solubility. A small aliquot of mother liquor was taken and filtered using 0.2 μM PTFE syringe filters. The concentration of solute was determined by UPLC analysis. After that, the solutions were evaporated under vacuum (5 mbar) and the dry solids were analyzed by HT-XRPD. The solids were then exposed to accelerated aging conditions (2 days at 40° C./75% RH) followed by HT-XRPD re-analysis.

The conditions of series [2]: dog, in vivo. The procedure: Each salt form was formulated into tablets with identical formulations. 9 dogs were divided into three group of 3 dogs/group. Each group received one of the following different pre-treatments: • 1. No pretreatment (natural gastric pH—could be acidic or alkaline) • 2. Famotidine (causes alkaline gastric pH) • 3. Pentagastrin (causes acidic gastric pH) The study used a crossover design. Each group of dogs first received pretreatment and was dosed with the Voruciclib HCl salt. After a washout period, the same group of dogs received the same pretreatment and was dosed with the Voruciclib malonate salt. The results were then analyzed for variability. […]
Clinical observations were recorded at least once daily, approximately 1 hour post-Voruciclib dose on dosing days. Body weight measurements were recorded for randomization, prior to dose administration (Day 1 and 8), and on the last day of the washout period following Phase 1 (Day 7). […]
Pharmacokinetic Analysis: Pharmacokinetic (PK) analyses were performed on the individual plasma concentration versus time data for Voruciclib using Phoenix WinNonlin non-compartmental analysis. To evaluate drug absorption, the PK parameter C max (maximum plasma concentration) was measured.
For each dog, the actual administered dose of voruciclib free base was calculated on a mg/kg basis, using the dog body weight data. […]

Series [3] in a line: Physical stability upon exposure to accelerated aging conditions (AAC, 40° C./75% RH), re-analysis by HT-XRPD. Format: physicochemical. The following applies: for Physical stability upon exposure to AAC: HT-XRPD before and after; for Stable during AAC: salt screen solids.
Series [4] is described as follows: Dynamic Vapor Sorption (DVS) hygroscopicity. The format is physicochemical. The conditions noted are these: for Water uptake: 25° C./80% RH; for Hygroscopicity classification: European Pharmacopoeia classification, water uptake at 25° C./80% RH; for Solid form recovered after DVS analysis: XRPD after sorption-desorption-sorption cycle. The procedure: (§1) Differences in hygroscopicity (moisture uptake) of the various forms of a solid material provided a measure of their relative stability at increasing relative humidity. Moisture sorption isotherms of small samples were obtained using a DVS-1 system from Surface Measurement Systems (London, UK); this instrument is suitable for use with a few milligrams of sample, with an accuracy of 0.1 μg. The relative humidity was varied during sorption-desorption-sorption (45-95-0-45% RH) at a constant temperature of 25° C. Weight equilibration per step was set at dm/dt <0.0002 for a minimum of 1 hour or maximum of 6 hours. Afterwards the sample was measured by HT-XRPD.
The hygroscopicity was classified according to the European Pharmacopoeia Hygroscopicity classification.
as §1, with “(40-95-0-40%” for “(45-95-0-45%”
as §1, with “use with as little as a few” for “use with a few”
The hygroscopicity of Mao1 was determined by DVS. The powder was exposed to a RH profile consisting of sorption/desorption/sorption cycles (40-95-0-40% RH) performed at 25° C. The water vapor uptake gained during the sorption half-cycle was 0.75%.

With `CN1CC[C@H](c2c(O)cc(O)c3c(=O)cc(-c4ccc(C(F)(F)F)cc4Cl)oc23)[C@H]1CO` (stereo in doubt) [voruciclib malonate, 2-(2-chloro-4-(trifluoromethyl)phenyl)-5,7-dihydroxy-8-((2S,3R)-2-(hydroxymethyl)-1-methylpyrrolidin-3-yl)-4H-chromen-4-one malonate salt], the solubility is 2.3 mg/mL in series [1] (1,2-dimethoxyethane, organic solvent or mixture, thermodynamic from solid, 1,2-Dimethoxyethane, read-out: Solubility); 0.9 mg/mL in series [1] (1,4-dioxane, organic solvent or mixture, thermodynamic from solid, 1,4-Dioxane, read-out: Solubility); 5.1 mg/mL in series [1] (2-propanol, organic solvent or mixture, thermodynamic from solid, 2-Propanol, read-out: Solubility); 130 mg/mL in series [1] (2-propanol/water (90/10), organic solvent or mixture, thermodynamic from solid, 2-Propanol/water (90/10), read-out: Solubility); 1 to 10 mg/mL in series [1] (IPA, acetone, AcN, MEK and 1,2-dimethoxyethane, organic solvent or mixture, thermodynamic from solid, IPA, acetone, AcN, MEK and 1,2-dimethoxyethane, read-out: Solubility classification); 10 to 33 mg/mL in series [1] (THF, water and EtOH, water, thermodynamic from solid, THF, water and EtOH, read-out: Solubility classification). Also, the solubility is 5 mg/mL in series [1] (acetone, organic solvent or mixture, thermodynamic from solid, Acetone, read-out: Solubility); 245 mg/mL in series [1] (acetone/water (90/10), organic solvent or mixture, thermodynamic from solid, Acetone/water (90/10), read-out: Solubility); 100 to 1000 mg/mL in series [1] (acetone/water (90/10, v/v) and IPA/water (90/10, v/v), organic solvent or mixture, thermodynamic from solid, acetone/water (90/10, v/v) and IPA/water (90/10, v/v), read-out: Solubility classification); 3 mg/mL in series [1] (acetonitrile, organic solvent or mixture, thermodynamic from solid, Acetonitrile, read-out: Solubility); under 0.04 mg/mL in series [1] (anisole, organic solvent or mixture, thermodynamic from solid, Anisole, read-out: Solubility); 0.5 mg/mL in series [1] (chloroform, organic solvent or mixture, thermodynamic from solid, Chloroform, read-out: Solubility). The solubility in series [1] (cyclohexane, organic solvent or mixture, thermodynamic from solid, Cyclohexane, read-out: Solubility) was under 0.07 mg/mL; in series [1] (dichloromethane, organic solvent or mixture, thermodynamic from solid, Dichloromethane, read-out: Solubility), 0.3 mg/mL; in series [1] (diethyl ether, organic solvent or mixture, thermodynamic from solid, Diethyl ether, read-out: Solubility), under 0.04 mg/mL; in series [1] (ethanol, organic solvent or mixture, thermodynamic from solid, Ethanol, read-out: Solubility), 13.6 mg/mL; in series [1] (ethyl acetate, organic solvent or mixture, thermodynamic from solid, Ethyl acetate, read-out: Solubility), 0.3 mg/mL; in series [1] (ethyl formate, organic solvent or mixture, thermodynamic from solid, Ethyl formate, read-out: Solubility), 0.4 mg/mL. In addition, the solubility is 0.1 mg/mL in series [1] (isopropyl acetate, organic solvent or mixture, thermodynamic from solid, Isopropyl acetate, read-out: Solubility); 65.7 mg/mL in series [1] (methanol, organic solvent or mixture, thermodynamic from solid, Methanol, read-out: Solubility); 33 to 100 mg/mL in series [1] (methanol, organic solvent or mixture, thermodynamic from solid, methanol, read-out: Solubility classification); 2.9 mg/mL in series [1] (methyl ethyl ketone, organic solvent or mixture, thermodynamic from solid, Methyl ethyl ketone, read-out: Solubility); under 0.06 mg/mL in series [1] (n-heptane, organic solvent or mixture, thermodynamic from solid, n-Heptane, read-out: Solubility); 0.1 to 1 mg/mL in series [1] (organic solvent or mixture, thermodynamic from solid, 1,4-dioxane, chloroform, ethyl formate, DCM, ethyl acetate and isopropyl acetate, read-out: Solubility classification). Also, the solubility in series [1] (organic solvent or mixture, thermodynamic from solid, toluene, anisole, MTBE, diethyl ether, pentane, cyclohexane and n-heptane, read-out: Solubility classification) is under 0.1 mg/mL; in series [1] (pentane, organic solvent or mixture, thermodynamic from solid, Pentane, read-out: Solubility) it was under 0.05 mg/mL; in series [1] (tert-butyl methyl ether, organic solvent or mixture, thermodynamic from solid, tert-Butyl methyl ether, read-out: Solubility), under 0.04 mg/mL; in series [1] (tetrahydrofuran, organic solvent or mixture, thermodynamic from solid, Tetrahydrofuran, read-out: Solubility) it was 14.2 mg/mL; in series [1] (toluene, organic solvent or mixture, thermodynamic from solid, Toluene, read-out: Solubility), under 0.04 mg/mL; in series [1] (water, thermodynamic from solid, Water, read-out: Solubility), 13.6 mg/mL. Moreover, in series [2], the Variability of absorption entry is reported as “lower than the hydrochloride salt”.
As for `CN1CC[C@@H](c2c(O)cc(O)c3c(=O)cc(-c4ccc(C(F)(F)F)cc4Cl)oc23)[C@@H]1CO.O=C(O)CC(=O)O` [Mao1], in series [3] (40° C./75% RH, 2 days), the “Physical stability upon exposure to AAC” value is “physically stable upon exposure to AAC; also recorded: physically stable upon exposure to stress conditions” and the “Stable during AAC” value was “Yes”. The Physically stable in series [3] (malonate salt forms, exposure to AAC 40° C./75% RH, 2 days) is reported as “Yes”. In addition, in series [3] (malonate salt thermocycling experiments, label = form of the ambient-dried solid before AAC, 40° C./75% RH, 2 days, HT-XRPD), the “Solid forms: Ambient-dried solid (AAC)” value is “Mao1”. In addition, in series [3] (malonate salt thermocycling experiments, label = form of the solid from the evaporated mother liquor before AAC, 40° C./75% RH, 2 days, HT-XRPD), the “Solid forms: Evap. ML (AAC)” value is “Mao1”. For the same compound, the “Solid forms: Vacuum-dried solids (AAC)” value in series [3] (malonate salt thermocycling experiments, label = form of the vacuum-dried solid before AAC, 40° C./75% RH, 2 days, HT-XRPD) is “Mao1”. For the same compound, in series [3] (solids from evaporated mother liquors of the salt screen, 40° C./75% RH for 2 days, HT-XRPD), the “Liquid phase AAC (XRPD form after accelerated aging)” value is reported as “Mao1”. In addition, the “Water uptake gained during the first sorption half-cycle” value in series [4] (DVS, 25° C., 40 to 95% RH) is reported as 0.75%. Moreover, the Water uptake in series [4] (DVS) turned out to be 0.15%. For the same compound, in series [4], the Hygroscopicity classification entry is “non-hygroscopic” and the “Solid form recovered after DVS analysis” value is “No solid form conversion was observed”.
As to `CN1CCC(c2c(O)cc(O)c3c(=O)cc(-c4ccc(C(F)(F)F)cc4Cl)oc23)C1CO.O=P(O)(O)O` (stereo not shown) [Pho1], in series [3] (40° C./75% RH, 2 days), the “Physical stability upon exposure to AAC” value is reported as “the only stable from when exposed to advance aging conditions; also recorded: physically stable under AAC for 2 days; also recorded: physically stable upon exposure to AAC for two days; also recorded: remained stable” and the “Stable during AAC” value is on record as “Yes”. For the same compound, the “Solid phase AAC (XRPD form after accelerated aging)” value in series [3] (precipitated solids of the salt screen, dried under vacuum at 50° C., 40° C./75% RH for 2 days, HT-XRPD) is “Pho1”. Moreover, the Water uptake result in series [4] (DVS) was “approximately 5.0%”. Moreover, in series [4], the Hygroscopicity classification result was “moderately hygroscopic” and the “Solid form recovered after DVS analysis” value was “Pho1 was recovered”. For the same compound, the “Stability against variable humidity conditions” value in series [4] (between 0-95% RH) is “stable against variable humidity conditions”.
